According to paper PMC6378277, “Mechanism Underlying Heat Stability of the Rice Endosperm Cytosolic ADP-Glucose Pyrophosphorylase” (Frontiers in Plant Science, 2019):
Changes are numbered by the printed parent chain.

What was measured:
[1] = molecular target: T1, rice AGPase L2/S2b (wild type; parent of L2/S2b^QTC and PQ6) (Oryza sativa, UniProt B7EVB8+Q7G065, B7EVB8:N38Q/B7EVB8:K39T/B7EVB8:N40C); conditions: read-out: A0.5; allosteric activator; ATP and Glc1P, 10 mM MgCl2, pH 8.0, room temperature; enzyme reduced with 10 mM DTT
T1 construct: gene AGPL2
T1 sequence (Q7G065 1-518): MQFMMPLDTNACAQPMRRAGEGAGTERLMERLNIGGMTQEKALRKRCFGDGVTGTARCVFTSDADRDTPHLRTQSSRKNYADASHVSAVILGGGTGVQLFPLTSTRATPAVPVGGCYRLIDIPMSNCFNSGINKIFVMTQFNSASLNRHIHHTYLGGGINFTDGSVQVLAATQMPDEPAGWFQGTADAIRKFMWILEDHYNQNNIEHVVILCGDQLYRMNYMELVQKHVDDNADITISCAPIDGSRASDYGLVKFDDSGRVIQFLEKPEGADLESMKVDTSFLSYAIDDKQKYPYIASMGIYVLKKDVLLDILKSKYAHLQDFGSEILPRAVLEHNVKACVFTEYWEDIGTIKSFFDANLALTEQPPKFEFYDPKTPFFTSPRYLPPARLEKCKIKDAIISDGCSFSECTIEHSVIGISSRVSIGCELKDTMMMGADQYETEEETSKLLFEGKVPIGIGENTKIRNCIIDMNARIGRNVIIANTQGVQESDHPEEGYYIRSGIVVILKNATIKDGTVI
T1 sequence (B7EVB8 1-479 N38Q/K39T/N40C): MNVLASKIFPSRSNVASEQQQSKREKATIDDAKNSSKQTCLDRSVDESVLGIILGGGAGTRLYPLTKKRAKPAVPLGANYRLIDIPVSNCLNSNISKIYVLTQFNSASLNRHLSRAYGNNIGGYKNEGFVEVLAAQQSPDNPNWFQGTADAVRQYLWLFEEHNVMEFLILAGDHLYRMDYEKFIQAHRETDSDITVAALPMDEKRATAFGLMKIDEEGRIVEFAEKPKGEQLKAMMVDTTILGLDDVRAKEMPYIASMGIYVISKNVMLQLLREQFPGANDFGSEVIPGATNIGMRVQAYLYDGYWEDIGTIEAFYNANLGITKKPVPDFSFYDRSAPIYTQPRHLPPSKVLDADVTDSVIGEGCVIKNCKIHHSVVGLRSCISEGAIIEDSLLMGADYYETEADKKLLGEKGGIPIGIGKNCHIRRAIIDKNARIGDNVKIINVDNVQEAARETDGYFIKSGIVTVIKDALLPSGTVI
Text: (§1) AGPase activity, phosphate release (PAMb colorimetric), Hill fit on rice AGPase L2/S2b (wild type; parent of L2/S2b^QTC and PQ6)

[2] = molecular target: T2, rice AGPase L2/S2b (wild type; parent of L2/S2b^QTC and PQ6) (Oryza sativa, UniProt B7EVB8+Q7G065); conditions: read-out: A0.5; allosteric activator; ADP-glucose synthesis with ATP and Glc1P, 10 mM MgCl2, pH 8.0, room temperature; enzyme reduced with 10 mM DTT
T2 construct: gene AGPL2
T2 sequence (Q7G065 1-518): T1 sequence (Q7G065 1-518)
T2 sequence (B7EVB8 1-479): T1 sequence (B7EVB8 1-479 N38Q/K39T/N40C) with Q38N, T39K, C40N
Text: as §1

[3] = molecular target: T3, rice AGPase L2/S2b (wild type; parent of L2/S2b^QTC and PQ6) (Oryza sativa, UniProt B7EVB8+Q7G065, B7EVB8:N38Q/B7EVB8:K39T/B7EVB8:N40C/B7EVB8:L379F); conditions: read-out: A0.5; allosteric activator; ATP and Glc1P, 10 mM MgCl2, pH 8.0, room temperature; enzyme reduced with 10 mM DTT
T3 construct: gene AGPL2
T3 sequence (Q7G065 1-518): T1 sequence (Q7G065 1-518)
T3 sequence (B7EVB8 1-479 N38Q/K39T/N40C/L379F): T1 sequence (B7EVB8 1-479 N38Q/K39T/N40C) with L379F
Text: as §1

hybrid L2/pSS = molecular target: T4, hybrid L2/pSS (Oryza sativa; Solanum tuberosum, UniProt P23509+Q7G065); test: AGPase activity, phosphate release (PAMb colorimetric), Hill fit; format: biochemical; conditions: allosteric activator; ATP and Glc1P, 10 mM MgCl2, pH 8.0, room temperature; enzyme reduced with 10 mM DTT; read-out: A0.5
T4 construct: hybrid heterotetramer of whole rice L2 and whole potato SS, E. coli EA345, purified
T4 sequence (P23509 73-521): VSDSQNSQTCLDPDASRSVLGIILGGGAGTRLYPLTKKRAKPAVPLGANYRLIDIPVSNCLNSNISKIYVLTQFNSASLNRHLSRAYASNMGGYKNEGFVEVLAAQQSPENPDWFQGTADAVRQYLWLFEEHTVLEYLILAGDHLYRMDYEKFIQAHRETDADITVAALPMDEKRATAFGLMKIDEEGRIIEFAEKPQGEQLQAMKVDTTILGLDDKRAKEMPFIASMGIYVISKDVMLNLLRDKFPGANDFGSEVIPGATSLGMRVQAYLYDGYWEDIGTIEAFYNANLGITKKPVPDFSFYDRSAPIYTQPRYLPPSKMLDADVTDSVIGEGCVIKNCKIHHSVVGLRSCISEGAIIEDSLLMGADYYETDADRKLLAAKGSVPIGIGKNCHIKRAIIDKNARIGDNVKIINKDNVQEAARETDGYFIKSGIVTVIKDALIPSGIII
T4 sequence (Q7G065 1-518): T1 sequence (Q7G065 1-518)
Text: AGPase activity, phosphate release (PAMb colorimetric), Hill fit on hybrid L2/pSS

EC50 (hybrid L2/pSS): 147 ± 3 µM
Compound: O=C(O)[C@H](O)COP(=O)(O)O [3-PGA]
EC50 [1]: 95 ± 2 µM
EC50 [2]: 342 ± 30 µM
EC50 [3]: 106 µM
